Consider two compounds from ChEMBL document CHEMBL2029257, “Copper-Free Click for PET: Rapid 1,3-Dipolar Cycloadditions with a Fluorine-18 Cyclooctyne” (ACS Med Chem Lett, 2011).

What all share (format): ADME, cell-free
Series [1] can be described thus: Metabolic stability in Sprague-Dawley rat serum assessed as compound remaining at 2 MBq at 1 hr by RP-HPLC analysis. The following applies: read-out: Stability.
The test system of a further series is Serum. In words: (§1) Metabolic stability in Sprague-Dawley rat serum assessed as compound remaining at 2 MBq at 2 hrs by RP-HPLC analysis. As to conditions: 2 h.
A short description of series [2]: as §1. The following applies: Sprague-Dawley, read-out: Stability.

With `O=C(NCCCCCC(=O)N1Cc2ccccc2C#Cc2ccccc21)c1ccc([18F])cc1`, in series [1], the remaining at 1 h, 2 MBq is above 98%. The Stability result with Serum was “Stable”.
In the case of `O=C(O)COCC(=O)NCCOCCOCCOCCOCCOCCOCCOCCOCCn1nnc2c1-c1ccccc1CN(C(=O)CCCCCNC(=O)c1ccc([18F])cc1)c1ccccc1-2`, the remaining at 1 h, 2 MBq in series [1] was above 98%. In addition, the remaining at 2 h, 2 MBq in series [2] is 96.8%.
